Here are results for eight molecules from PubChem BioAssay (NCI).

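Results reflect a 48-hour exposure of cells in 96-well plates to compound at five concentrations. The concentration for 50% growth inhibition is given as GI50. TGI: total growth inhibition.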

Assay in all cases: NCI-60 cell line screen, 48 h
For assay [1], the system named is HCC-2998 colon.
Assay [2] relates to UACC-257 melanoma.
Assay [3] relates to HS 578T breast.
Assay [4] relates to T-47D breast.
The test system of assay [5] is MDA-MB-435.
In assay [6] the test system is KM12 colon.
Assay [7] relates to LOX IMVI melanoma.
In assay [8] the test system is HOP-92 NSCLC.
Assay [9] concerns RPMI-8226 leukemia.
The test system of assay [10] is EKVX NSCLC.

Consider `Cc1c(C(=O)NN)nnn1-c1ccnc2c(C(F)(F)F)cccc12`, for which the GI50 in assay [1], in [2], in [3], in assay [4], in assay [5] and in assay [6] was > 100 µM in each case. The GI50 in [7], in assay [8], in [9] and in [10] was > 100 µM in each case. Moreover, the TGI in [1], in assay [2], in assay [3], in [4], in assay [5] and in assay [6] was > 100 µM throughout. In addition, the TGI in assay [7], in assay [8], in assay [9] and in assay [10] was > 100 µM throughout.

Take `CCn1c(-c2nonc2N)nc2ccc(F)cc21`: the GI50 in [1], in assay [2], in assay [3], in assay [4], in assay [5] and in assay [6] was > 25 µM in each case. Besides, the GI50 is > 25 µM in assay [7], 7.36 µM in [8], > 25 µM in assay [9] and > 22.2 µM in [10]. Also, the TGI in assay [1], in assay [2], in [3], in [4], in assay [5] and in assay [6] was > 25 µM throughout. The TGI in [7], in assay [8], in [9] and in [10] was > 25 µM in each case.

Consider `CC(C)(C)c1nc2c(o1)C(=Nc1ccc(F)cc1)c1ccccc1C2=O`, for which the TGI in [1] was 20.5 µM; in assay [2] it was 8.41 µM; in assay [3] it was > 45.7 µM; in assay [4] it was > 100 µM; in assay [5] it was 3.76 µM; in assay [6], 52.5 µM. In addition, the TGI in [7] was 13 µM; in assay [8], > 97.7 µM; in assay [9], > 100 µM; in assay [10], > 83.5 µM.

On to `FC(F)(F)c1ccc2c(Nc3cccc(C4CC(c5ccccc5)=NN4c4ccc(Cl)cc4)c3)ccnc2c1` (stereo not given), for which the GI50 in [1] was 1.96 µM; in [2] it was 11.2 µM; in [3] it was 4.43 µM; in assay [4] it was 5.93 µM; in [5] it was 2.97 µM; in assay [6], 3.16 µM. Besides, the GI50 is 1.68 µM in [7], 3.21 µM in assay [8], 2.3 µM in assay [9] and 10.9 µM in assay [10]. Besides, the TGI came out at 4.01 µM in assay [1]; 32.6 µM in [2]; 43.2 µM in assay [3]; 37.4 µM in assay [4]; 11.6 µM in [5]; 16.7 µM in [6]. For the same molecule, the TGI in [7] came to 3.81 µM; in assay [8] it was 40.5 µM; in [9] it was 6.46 µM; in assay [10], 59.5 µM.

`COc1ccc2c(c1)[C@@]13CCN4CC5=CCO[C@H]6CC(=O)N2[C@H]1[C@H]6[C@H]5C[C@H]43`: the TGI in [1], in assay [2], in assay [3], in [4], in assay [5] and in assay [6] was > 100 µM each time. In addition, the TGI in assay [7], in [8], in [9] and in assay [10] was > 100 µM in each case.

For the molecule `O=P(O)(O)C(O)(Cn1ccnc1)P(=O)(O)O`, the GI50 in assay [1] is 98.2 µM; in assay [2], > 100 µM; in assay [3], 4.67 µM; in [4] it was > 79 µM; in assay [5] it was > 100 µM; in [6], > 79.3 µM. Further, the GI50 in assay [7] was > 47 µM; in assay [8] it was > 41.7 µM; in assay [9] it was 15.6 µM; in assay [10], > 87.9 µM. Moreover, the TGI is > 100 µM in assay [1]; > 100 µM in assay [2]; > 45.5 µM in assay [3]; > 100 µM in [4]; > 100 µM in assay [5]; > 100 µM in assay [6]. The TGI in assay [7], in assay [8], in [9] and in [10] was > 100 µM in each case.

As for `CS(=O)(=O)Nc1ccc(-c2ccc3c(NC(=O)C4CC4)n[nH]c3c2)cc1`, the GI50 in assay [1] is > 25 µM; in assay [2], > 25 µM; in assay [3] it was 24.4 µM; in assay [4], > 13.2 µM; in assay [5], > 25 µM; in assay [6], > 16.2 µM. The GI50 was > 25 µM in [7], > 25 µM in [8], 13.7 µM in [9] and > 25 µM in assay [10]. For the same molecule, the TGI in [1], in assay [2], in [3], in assay [4], in [5] and in assay [6] was > 25 µM throughout. Also, the TGI in assay [7], in assay [8], in [9] and in [10] was > 25 µM each time.

Regarding `COc1ccc(C2C(C#N)=C(N)OC3=C2CCCc2ccc(F)cc23)cc1OC` (stereo not given), the GI50 was 15.6 µM in assay [1]; 29.6 µM in assay [2]; 22 µM in assay [3]; 46.1 µM in assay [4]; 12.9 µM in [5]; 19.1 µM in assay [6]. The GI50 in assay [7] was 21.9 µM; in [8], 17.1 µM; in [9] it was 7.46 µM; in [10], 10.1 µM. The TGI in assay [1] is 31.6 µM; in [2], > 67.8 µM; in assay [3], 51.5 µM; in assay [4], 98.3 µM; in [5], > 53.3 µM; in assay [6], 43.6 µM. For the same molecule, the TGI in assay [7] turned out to be 44.8 µM; in assay [8], 42.4 µM; in assay [9], 22.8 µM; in assay [10] it was 37.5 µM.
